{"source": "patent US20070249555A1", "about": "“Use of Atp Analogues for Treatment of Cardiovascular Diseases” (INSTITUT NATIONAL DE LA SANTE ET DE LA RECHERCHE MEDICALE …, priority 2004, published 2007)", "key": {"[1]": {"system": "liver of P2Y1-/- C57BL/6J mice", "assay": "in situ TG-HDL2 endocytosis by perfused liver of P2Y1-/- mouse", "type": "in vivo", "conditions": "liver perfused in situ 10 min at 37° C., AR-C69931MX 10 μM", "description": "FIG. 4C: The liver from P2Y1^−/−C57BL/6J male mice (25 weeks old) was perfused in situ for 10 minutes at 37° C. in HBSS medium with 75 μg/ml of ^125I-TG-HDL2 in the presence of PBS (a) or AR-C69931MX 10 μM (b). ^125I radioactivity associated with the livers was determined (n>3); (*) (p<0.05) (unpaired t-test).\nThe perfused mouse liver experiments were carried out on C57BL/6J male mice, 8 weeks old, (Charles River Cie) or P2Y1^−/− mouse, 25 weeks old. Mouse were anesthetized by intraperitoneal injections of 200 μl ketamine hydrochloride (Merial)-xylazine hydrochloride 2% (Bayer)-PBS (1:1:3 v/v). […] The livers were perfused in situ for 10 minutes at 37° C. in HBSS medium containing 75 μg/ml of ^125I-TG-HDL2 (5000 cpm/ng of proteins) or ^3H-cholesteryl-ether-TG-HDL2 (15000 dpm/mg of cholesteryl ester), with PBS apolipoprotein A-1 (ApoA-1, 10 μg/ml) or AR-C69931MX (10 μM).\nLivers were extensively washed at 4° C. in PBS and radioactivity associated per […] of liver was counted, (n=7 per group). Values represent means ±SEM, with p<0.05 (unpaired t-test)."}, "[2]": {"system": "plain CHO-K1 cells", "assay": "forskolin-induced cAMP accumulation in plain CHO-K1 cells (control)", "type": "cell-based", "conditions": "untransfected control cells"}}, "data": [{"smiles": "CSCCNc1nc(SCCC(F)(F)F)nc2c1ncn2[C@@H]1O[C@H](COP(=O)(O)OP(=O)(O)C(Cl)(Cl)P(=O)(O)O)[C@@H](O)[C@H]1O", "note": "[AR-C69931MX, N-[2-(methylthio)ethyl]-2-[(3,3,3-trifluoropropyl)thio]-5′-adenylic acid, monoanhydride with dichloromethylenebisphosphonic acid]", "values": [{"measurement": "increase of TG-HDL2 internalization by the liver above the control", "setting": "[1]", "result": 38, "unit": "%"}, {"measurement": "effect on cAMP accumulation in plain CHO-K1 cells", "setting": "[2]", "result": "no effect"}]}]}
